Assay results as given in ChEMBL document CHEMBL4002599, “Structure-based design and synthesis of imidazo[1,2-a]pyridine derivatives as novel and potent Nek2 inhibitors with in vitro and in vivo antitumor activities” (Eur J Med Chem, 2017).
Calls of active or inactive are those of the source. No cut-off for these calls is given here.

Key:
[1] = biological target: T1, Serine/threonine-protein kinase Nek2 (Homo sapiens, UniProt P51955); assay: Inhibition of N-terminal His6-tagged full-length recombinant human NEK2 expressed in baculovirus infected sf21 cells using biotin labelled-STK-3 substrate measured after 60 mins by HTRF assay
T1 sequence (P51955 whole entry): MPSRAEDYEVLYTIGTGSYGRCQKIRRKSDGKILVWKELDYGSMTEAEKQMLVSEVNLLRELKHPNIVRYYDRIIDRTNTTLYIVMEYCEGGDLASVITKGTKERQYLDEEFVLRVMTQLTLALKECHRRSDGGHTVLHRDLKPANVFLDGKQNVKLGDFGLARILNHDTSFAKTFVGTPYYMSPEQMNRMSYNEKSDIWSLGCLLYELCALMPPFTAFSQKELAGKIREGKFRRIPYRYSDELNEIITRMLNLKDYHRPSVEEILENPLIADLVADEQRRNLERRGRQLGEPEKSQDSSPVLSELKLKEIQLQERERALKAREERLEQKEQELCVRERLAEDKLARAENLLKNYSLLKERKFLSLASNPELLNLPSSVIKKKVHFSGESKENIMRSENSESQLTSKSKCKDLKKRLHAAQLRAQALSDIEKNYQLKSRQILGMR

[2] = Clearance in Sprague-Dawley rat at 1 mg/kg, iv administered as bolus dose by LC-MS/MS method; type: ADME, organism-based; details: in vivo
[3] = Volume of distribution at steady state in Sprague-Dawley rat at 1 mg/kg, iv administered as bolus dose by LC-MS/MS method; type: ADME, organism-based; details: in vivo, read-out: Vdss
Rattus norvegicus [4] = assay: AUC (0 to infinity) in Sprague-Dawley rat at 1 mg/kg, iv administered as bolus dose by LC-MS/MS method; type: ADME, organism-based; parameters: dose 1 mg/kg, time infinity, route intravenous; details: in vivo
[5] = MRT (0 to t) in Sprague-Dawley rat at 1 mg/kg, iv administered as bolus dose by LC-MS/MS method; type: ADME, organism-based; details: in vivo
Rattus norvegicus [6] = assay: AUC (0 to t) in Sprague-Dawley rat at 1 mg/kg, iv administered as bolus dose by LC-MS/MS method; type: ADME, organism-based; details: in vivo
[7] = Half-life in Sprague-Dawley rat at 1 mg/kg, iv administered as bolus dose by LC-MS/MS method; type: ADME, organism-based; details: in vivo
MGC-803 = assay: Cytotoxicity against human MGC803 cells measured after 72 hrs by MTT assay; type: functional, cell-based; details: MGC-803, 72 h
Bel-7402 = assay: Cytotoxicity against human Bel7402 cells measured after 72 hrs by MTT assay; type: functional, cell-based; details: Bel-7402, 72 h
HCT-116 [8] = assay: Cytotoxicity against human HCT116 cells measured after 72 hrs by MTT assay; type: functional, cell-based; details: HCT-116, 72 h
Aurora kinase A = biological target: T2, Aurora kinase A (Homo sapiens, UniProt O14965); assay: Inhibition of Aurora A (unknown origin)
T2 sequence (O14965 whole entry): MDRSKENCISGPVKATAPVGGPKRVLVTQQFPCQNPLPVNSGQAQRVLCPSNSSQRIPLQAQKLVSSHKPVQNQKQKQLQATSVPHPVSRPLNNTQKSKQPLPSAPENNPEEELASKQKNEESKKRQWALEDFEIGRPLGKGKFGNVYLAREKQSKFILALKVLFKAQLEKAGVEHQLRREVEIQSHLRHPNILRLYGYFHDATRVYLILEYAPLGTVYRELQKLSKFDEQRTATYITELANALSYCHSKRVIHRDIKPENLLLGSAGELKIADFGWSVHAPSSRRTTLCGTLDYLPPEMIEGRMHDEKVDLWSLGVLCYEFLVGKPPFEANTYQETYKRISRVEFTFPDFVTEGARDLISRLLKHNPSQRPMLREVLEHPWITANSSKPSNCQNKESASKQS

HCT-116 [9] = assay: Antitumor activity against human HCT116 cells xenografted in BALB/c nu/nu mouse assessed as tumor growth inhibition at 20 mg/kg, ip administered twice daily for 21 days; type: functional; details: HCT-116, ip, read-out: TGI
Mus musculus = assay: Toxicity in BALB/c nu/nu mouse assessed as body weight loss at 20 mg/kg, ip administered twice daily for 21 days; type: organism-based; details: in vivo
HCT-116 [10] = assay: Cell cycle arrest in human HCT116 cells assessed as G2/M phase accumulation by measuring >4N DNA content at 0.5 to 1 uM measured after 24 hrs by propidium iodide staining based flow cytometry; type: functional
HCT-116 [11] = assay: Cell cycle arrest in human HCT116 cells assessed as accumulation at G2/M phase at 0.5 to 1 uM measured after 24 hrs by propidium iodide staining based flow cytometry; type: functional
HCT-116 [12] = assay: Induction of apoptosis in human HCT116 cells measured after 24 hrs by Annexin-V/PI staining based flow cytometry; type: functional, cell-based
HCT-116 [13] = assay: Antitumor activity against human HCT116 cells xenografted in BALB/c nu/nu mouse assessed as reduction in tumor volume at 20 mg/kg, ip administered twice daily for 21 days; type: functional, organism-based
[14] = biological target: Glycogen synthase kinase-3 beta (Homo sapiens, UniProt P49841); assay: Inhibition of GSK3beta (unknown origin)
[15] = biological target: Cyclin-dependent kinase 4 (Homo sapiens, UniProt P11802); assay: Inhibition of CDK4 (unknown origin)
[16] = biological target: Tyrosine-protein kinase ABL1 (Homo sapiens, UniProt P00519); assay: Inhibition of ABL (unknown origin)
HCT-116 [17] = assay: Induction of apoptosis in human HCT116 cells assessed as necrotic cells at 1 uM measured after 24 hrs by Annexin-V/PI staining based flow cytometry (reference value: 0.4%); type: functional
[18] = biological target: Cyclin-dependent kinase 2 (Homo sapiens, UniProt P24941); assay: Inhibition of CDK2 (unknown origin)
[19] = biological target: Mitogen-activated protein kinase 14 (Homo sapiens, UniProt Q16539); assay: Inhibition of P38alpha (unknown origin)
HCT-116 [20] = assay: Induction of apoptosis in human HCT116 cells assessed as necrotic cells at 0.5 uM measured after 24 hrs by Annexin-V/PI staining based flow cytometry (reference value: 0.4%); type: functional
HCT-116 [21] = assay: Induction of apoptosis in human HCT116 cells assessed as early apoptotic cells at 0.5 uM measured after 24 hrs by Annexin-V/PI staining based flow cytometry (reference value: 4%); type: functional
[22] = biological target: Dual specificity tyrosine-phosphorylation-regulated kinase 1A (Homo sapiens, UniProt Q13627); assay: Inhibition of DYRK1A (unknown origin)
[23] = biological target: RAC-alpha serine/threonine-protein kinase (Homo sapiens, UniProt P31749); assay: Inhibition of AKT1 (unknown origin)
[24] = biological target: T3, Serine/threonine-protein kinase Chk1 (Homo sapiens, UniProt O14757); assay: Inhibition of CHK1 (unknown origin)
T3 sequence (O14757 whole entry): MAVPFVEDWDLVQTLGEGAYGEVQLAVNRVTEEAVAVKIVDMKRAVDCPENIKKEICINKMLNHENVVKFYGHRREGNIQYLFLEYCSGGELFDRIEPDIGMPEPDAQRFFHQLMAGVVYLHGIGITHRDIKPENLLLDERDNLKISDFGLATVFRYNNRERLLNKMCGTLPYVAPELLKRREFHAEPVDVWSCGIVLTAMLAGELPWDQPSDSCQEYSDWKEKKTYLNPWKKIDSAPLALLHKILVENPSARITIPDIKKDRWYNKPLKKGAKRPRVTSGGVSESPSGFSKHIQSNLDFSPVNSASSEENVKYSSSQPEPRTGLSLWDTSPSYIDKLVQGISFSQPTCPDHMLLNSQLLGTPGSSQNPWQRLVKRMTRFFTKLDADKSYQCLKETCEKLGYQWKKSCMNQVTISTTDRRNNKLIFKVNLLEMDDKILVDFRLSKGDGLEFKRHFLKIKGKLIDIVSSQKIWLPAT

[25] = biological target: Ribosomal protein S6 kinase alpha-1 (Homo sapiens, UniProt Q15418); assay: Inhibition of RSK1 (unknown origin)
HCT-116 [26] = assay: Induction of apoptosis in human HCT116 cells assessed as late apoptotic cells at 0.5 uM measured after 24 hrs by Annexin-V/PI staining based flow cytometry (reference value: […]); type: functional
HCT-116 [27] = assay: Induction of apoptosis in human HCT116 cells assessed as early apoptotic cells at 1 uM measured after 24 hrs by Annexin-V/PI staining based flow cytometry (reference value: 4%); type: functional
HCT-116 [28] = assay: Induction of apoptosis in human HCT116 cells assessed as late apoptotic cells at 1 uM measured after 24 hrs by Annexin-V/PI staining based flow cytometry (reference value: […]); type: functional
[29] = biological target: Phosphatidylinositol 4,5-bisphosphate 3-kinase catalytic subunit alpha isoform (Homo sapiens, UniProt P42336); assay: Inhibition of PI3Kalpha (unknown origin)
[30] = biological target: MAP kinase-activated protein kinase 2 (Homo sapiens, UniProt P49137); assay: Inhibition of MAPKAPK2 (unknown origin)
MAP kinase-activated protein kinase 2, sequence (P49137 whole entry): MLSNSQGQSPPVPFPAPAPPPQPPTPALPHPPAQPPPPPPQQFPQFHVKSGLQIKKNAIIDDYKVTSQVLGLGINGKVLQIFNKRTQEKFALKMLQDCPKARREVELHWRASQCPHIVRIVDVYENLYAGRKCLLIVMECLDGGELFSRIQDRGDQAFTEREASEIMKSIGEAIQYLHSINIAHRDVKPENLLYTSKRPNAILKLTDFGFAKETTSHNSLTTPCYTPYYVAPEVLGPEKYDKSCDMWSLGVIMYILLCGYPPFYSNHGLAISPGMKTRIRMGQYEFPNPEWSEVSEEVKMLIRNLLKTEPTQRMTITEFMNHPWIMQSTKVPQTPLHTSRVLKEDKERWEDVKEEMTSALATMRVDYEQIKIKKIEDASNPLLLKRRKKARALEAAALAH

Tyrosine-protein kinase ABL1, sequence (P00519 whole entry): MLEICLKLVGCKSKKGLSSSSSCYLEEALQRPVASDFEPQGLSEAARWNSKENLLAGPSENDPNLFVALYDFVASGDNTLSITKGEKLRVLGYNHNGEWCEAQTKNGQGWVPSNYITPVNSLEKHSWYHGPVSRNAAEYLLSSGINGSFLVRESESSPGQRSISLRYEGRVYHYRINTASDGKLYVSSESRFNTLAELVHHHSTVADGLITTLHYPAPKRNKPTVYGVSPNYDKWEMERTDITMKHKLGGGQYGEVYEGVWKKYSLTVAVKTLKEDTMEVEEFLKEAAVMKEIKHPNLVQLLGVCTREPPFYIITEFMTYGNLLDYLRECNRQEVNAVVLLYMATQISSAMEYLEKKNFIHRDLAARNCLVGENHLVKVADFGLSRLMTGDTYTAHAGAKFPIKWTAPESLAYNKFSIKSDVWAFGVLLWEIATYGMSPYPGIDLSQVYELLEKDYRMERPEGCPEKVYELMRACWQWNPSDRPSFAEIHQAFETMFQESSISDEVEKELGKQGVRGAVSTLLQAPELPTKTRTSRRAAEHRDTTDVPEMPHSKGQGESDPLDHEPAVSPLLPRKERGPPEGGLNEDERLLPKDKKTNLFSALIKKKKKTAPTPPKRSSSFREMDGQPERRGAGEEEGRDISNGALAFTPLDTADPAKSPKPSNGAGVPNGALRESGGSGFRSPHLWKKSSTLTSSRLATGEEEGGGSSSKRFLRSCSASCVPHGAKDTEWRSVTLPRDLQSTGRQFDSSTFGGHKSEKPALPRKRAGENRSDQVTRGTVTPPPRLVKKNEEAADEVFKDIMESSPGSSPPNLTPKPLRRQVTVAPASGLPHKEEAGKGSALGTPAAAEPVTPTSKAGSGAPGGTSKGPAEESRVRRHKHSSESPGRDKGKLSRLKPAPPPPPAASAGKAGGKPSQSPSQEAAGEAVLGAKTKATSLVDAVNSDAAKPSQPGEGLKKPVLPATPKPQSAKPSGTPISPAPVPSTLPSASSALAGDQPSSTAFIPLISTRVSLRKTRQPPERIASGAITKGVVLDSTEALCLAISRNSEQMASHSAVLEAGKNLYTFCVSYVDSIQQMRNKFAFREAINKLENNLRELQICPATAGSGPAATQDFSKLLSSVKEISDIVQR
Ribosomal protein S6 kinase alpha-1, sequence (Q15418 whole entry): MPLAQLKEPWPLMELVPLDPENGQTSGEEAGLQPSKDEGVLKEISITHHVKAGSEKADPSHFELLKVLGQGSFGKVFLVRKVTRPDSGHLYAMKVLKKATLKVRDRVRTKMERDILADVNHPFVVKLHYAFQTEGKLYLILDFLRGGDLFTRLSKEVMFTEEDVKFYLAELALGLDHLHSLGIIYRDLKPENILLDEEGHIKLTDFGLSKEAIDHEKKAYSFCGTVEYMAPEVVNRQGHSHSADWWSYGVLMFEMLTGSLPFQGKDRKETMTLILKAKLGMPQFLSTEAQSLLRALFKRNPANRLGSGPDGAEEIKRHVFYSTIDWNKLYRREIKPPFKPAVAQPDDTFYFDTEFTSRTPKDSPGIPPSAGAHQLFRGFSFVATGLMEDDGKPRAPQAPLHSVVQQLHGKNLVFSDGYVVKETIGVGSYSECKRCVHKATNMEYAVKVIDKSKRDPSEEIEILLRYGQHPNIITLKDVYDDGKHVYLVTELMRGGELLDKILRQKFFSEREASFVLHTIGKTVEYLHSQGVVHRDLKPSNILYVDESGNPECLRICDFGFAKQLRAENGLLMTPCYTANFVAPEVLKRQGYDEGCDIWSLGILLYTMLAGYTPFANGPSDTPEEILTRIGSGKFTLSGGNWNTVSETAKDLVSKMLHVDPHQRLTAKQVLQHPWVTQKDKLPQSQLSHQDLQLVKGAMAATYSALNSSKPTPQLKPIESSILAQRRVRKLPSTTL
Cyclin-dependent kinase 4, sequence (P11802 whole entry): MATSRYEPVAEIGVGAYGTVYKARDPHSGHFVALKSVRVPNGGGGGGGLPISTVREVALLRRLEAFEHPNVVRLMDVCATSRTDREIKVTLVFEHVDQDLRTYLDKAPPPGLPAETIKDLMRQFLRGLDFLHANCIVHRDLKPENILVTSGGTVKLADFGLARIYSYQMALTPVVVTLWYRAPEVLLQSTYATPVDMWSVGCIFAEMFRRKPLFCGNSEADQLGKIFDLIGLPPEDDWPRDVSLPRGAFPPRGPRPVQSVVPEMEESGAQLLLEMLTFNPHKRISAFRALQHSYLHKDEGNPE
Phosphatidylinositol 4,5-bisphosphate 3-kinase catalytic subunit alpha isoform, sequence (P42336 whole entry, canonical isoform): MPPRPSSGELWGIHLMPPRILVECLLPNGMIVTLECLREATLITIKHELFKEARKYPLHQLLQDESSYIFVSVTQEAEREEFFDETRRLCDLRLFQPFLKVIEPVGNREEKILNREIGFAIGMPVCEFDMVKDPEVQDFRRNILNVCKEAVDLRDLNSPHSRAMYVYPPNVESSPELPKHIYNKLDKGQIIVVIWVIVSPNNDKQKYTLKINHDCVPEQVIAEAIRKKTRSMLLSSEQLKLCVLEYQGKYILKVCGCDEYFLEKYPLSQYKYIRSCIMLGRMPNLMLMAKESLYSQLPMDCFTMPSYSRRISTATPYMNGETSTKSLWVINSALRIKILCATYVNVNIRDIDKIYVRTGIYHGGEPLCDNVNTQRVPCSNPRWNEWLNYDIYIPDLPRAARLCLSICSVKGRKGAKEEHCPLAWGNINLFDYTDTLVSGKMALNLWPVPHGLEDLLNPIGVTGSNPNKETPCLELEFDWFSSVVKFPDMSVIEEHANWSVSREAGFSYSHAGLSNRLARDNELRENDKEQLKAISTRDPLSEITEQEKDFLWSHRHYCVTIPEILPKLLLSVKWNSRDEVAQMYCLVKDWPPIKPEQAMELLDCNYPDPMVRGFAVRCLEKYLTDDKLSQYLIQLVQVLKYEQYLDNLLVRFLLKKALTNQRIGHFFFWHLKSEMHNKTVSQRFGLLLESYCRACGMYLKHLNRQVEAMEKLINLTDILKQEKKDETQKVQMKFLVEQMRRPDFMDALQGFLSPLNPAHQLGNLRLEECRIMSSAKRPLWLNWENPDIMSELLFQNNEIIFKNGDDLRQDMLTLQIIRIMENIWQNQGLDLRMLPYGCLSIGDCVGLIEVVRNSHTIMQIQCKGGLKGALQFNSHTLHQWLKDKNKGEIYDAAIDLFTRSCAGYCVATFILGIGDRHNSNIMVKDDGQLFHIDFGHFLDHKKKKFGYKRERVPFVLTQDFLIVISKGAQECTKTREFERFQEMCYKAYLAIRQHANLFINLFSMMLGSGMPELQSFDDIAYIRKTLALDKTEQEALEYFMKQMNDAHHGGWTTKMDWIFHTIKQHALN
Glycogen synthase kinase-3 beta, sequence (P49841 whole entry): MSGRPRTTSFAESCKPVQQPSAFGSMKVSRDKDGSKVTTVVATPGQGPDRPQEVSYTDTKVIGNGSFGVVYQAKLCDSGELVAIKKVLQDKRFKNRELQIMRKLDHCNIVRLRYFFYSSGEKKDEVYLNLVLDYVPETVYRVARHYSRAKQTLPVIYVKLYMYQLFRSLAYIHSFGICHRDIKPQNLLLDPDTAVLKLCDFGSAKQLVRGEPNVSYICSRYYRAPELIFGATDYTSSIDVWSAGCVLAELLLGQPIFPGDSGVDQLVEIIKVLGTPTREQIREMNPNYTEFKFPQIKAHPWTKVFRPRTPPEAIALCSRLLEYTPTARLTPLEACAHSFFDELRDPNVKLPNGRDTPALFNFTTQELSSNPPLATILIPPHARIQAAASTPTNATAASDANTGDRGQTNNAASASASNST
RAC-alpha serine/threonine-protein kinase, sequence (P31749 whole entry): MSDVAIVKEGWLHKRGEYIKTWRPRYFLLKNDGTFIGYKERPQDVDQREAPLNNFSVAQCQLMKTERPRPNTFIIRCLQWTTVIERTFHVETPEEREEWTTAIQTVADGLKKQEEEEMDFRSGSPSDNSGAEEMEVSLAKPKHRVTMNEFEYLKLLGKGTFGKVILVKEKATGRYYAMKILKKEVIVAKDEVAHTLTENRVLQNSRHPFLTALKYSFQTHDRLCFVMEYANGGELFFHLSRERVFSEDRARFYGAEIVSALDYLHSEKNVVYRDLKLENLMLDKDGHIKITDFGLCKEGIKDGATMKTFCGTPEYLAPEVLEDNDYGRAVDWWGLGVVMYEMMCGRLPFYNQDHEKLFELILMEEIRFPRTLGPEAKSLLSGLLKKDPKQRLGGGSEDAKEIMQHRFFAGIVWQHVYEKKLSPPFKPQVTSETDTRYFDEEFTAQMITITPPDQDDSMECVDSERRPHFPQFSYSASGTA
Mitogen-activated protein kinase 14, sequence (Q16539 whole entry): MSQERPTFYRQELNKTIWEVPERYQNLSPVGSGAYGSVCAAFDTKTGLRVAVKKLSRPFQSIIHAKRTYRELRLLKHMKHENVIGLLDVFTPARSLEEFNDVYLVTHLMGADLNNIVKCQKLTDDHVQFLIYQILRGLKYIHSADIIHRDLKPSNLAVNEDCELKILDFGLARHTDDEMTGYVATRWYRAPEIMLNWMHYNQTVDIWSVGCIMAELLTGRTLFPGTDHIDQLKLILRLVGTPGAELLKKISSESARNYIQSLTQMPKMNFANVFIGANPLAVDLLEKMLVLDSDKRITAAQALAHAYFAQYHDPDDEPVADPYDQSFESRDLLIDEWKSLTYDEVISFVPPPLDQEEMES

For `COC(=O)c1ccc(-c2cnc3cc(N4CCN(C)CC4)ccn23)cc1OC(C)c1ccccc1C(F)(F)F` (stereo not drawn), the IC50 [1] was 42600 nM.
Molecule `CN(C)CCn1cc(-c2ccn3c(-c4ccc(C(N)=O)c(OCc5ccccc5)c4)cnc3c2)cn1` has a clearance [2] of 42.4 mL/min/kg, a Vd [3] of 4.06 L/kg and an AUC (Rattus norvegicus [4]) of 405 ng·h/mL. The MRT last [5] was 1.68 h, the AUCt (Rattus norvegicus [6]) was 386 ng·h/mL and the half-life [7] was 2.42 h.
For `CN1CCN(c2ccn3c(-c4ccc(C(N)=O)c(OCc5ccccc5)c4)cnc3c2)CC1`, the IC50 (MGC-803) was 6210 nM and the IC50 [1] was 3210 nM.
`CN(C)CCn1cc(-c2ccn3c(-c4ccc(C(N)=O)c(OCc5cccc(C(F)(F)F)c5)c4)cnc3c2)cn1` showed a clearance [2] of 62.8 mL/min/kg, a Vd [3] of 5.08 L/kg and an IC50 (MGC-803) of 790 to 800 nM. For the same molecule, the IC50 (Bel-7402) was 2780 nM, the AUC (Rattus norvegicus [4]) was 268 ng·h/mL and the IC50 (HCT-116 [8]) was 1290 nM. For the same molecule, the MRT last [5] was 1.38 h, the AUCt (Rattus norvegicus [6]) was 262 ng·h/mL and the IC50 (Aurora kinase A) was > 10000 nM. It also gave a half-life [7] of 1.49 h and an IC50 [1] of 7 nM.
For `CN(C)CCn1cc(-c2ccn3c(-c4ccc(C(N)=O)c(OCc5cccc(F)c5)c4)cnc3c2)cn1.O=C(O)CCC(=O)O.O=C(O)CCC(=O)O`, the inhibition in vivo at 20 mg/kg (HCT-116 [9]) was 36% and the Activity (Mus musculus) was “Non-Toxic”.
In the case of `C[C@@H](Oc1cc(-c2cnc3cc(N4CCN(C)CC4)ccn23)ccc1C(N)=O)c1ccccc1C(F)(F)F`, the IC50 (MGC-803) is reported as 3160 nM and the IC50 [1] is reported as 1190 nM.
For `CN(C)CCn1cc(-c2ccn3c(-c4ccc(C(N)=O)c(OCc5cccc(F)c5)c4)cnc3c2)cn1` [listing 1 of 2 here], the Activity (HCT-116 [10]) was “Active”, the Activity (HCT-116 [11]) was “Active” and the Activity (HCT-116 [12]) was “Dose-dependent effect”. The Activity (HCT-116 [13]) was “Active”.
In the case of `COc1cc(-c2cnc3cc(N4CCN(C)CC4)ccn23)ccc1C(N)=O`, the IC50 (MGC-803) is reported as > 30000 nM and the IC50 [1] is reported as 19300 nM.
`CN1CCN(c2ccn3c(-c4ccc(C(=O)NO)c(OCc5ccccc5C(F)(F)F)c4)cnc3c2)CC1` gave an IC50 (MGC-803) of 17100 nM and an IC50 [1] of 10000 nM.
With `CN(C)CCn1cc(-c2ccn3c(-c4ccc(C(N)=O)c(OCc5cccc(F)c5)c4)cnc3c2)cn1` [listing 2 of 2 here] the clearance [2] was 33.3 mL/min/kg, the Vd [3] was 2.53 L/kg and the IC50 [14] was 91 nM. The IC50 [15] was 441 nM, the IC50 [16] was 20 nM and the IC50 (MGC-803) was 530 nM. For the same molecule, the IC50 (Bel-7402) was 7130 nM, the Activity (HCT-116 [17]) was 3.5% and the AUC (Rattus norvegicus [4]) was 507 ng·h/mL. The IC50 (HCT-116 [8]) was 840 nM, the IC50 [18] was 370 nM and the IC50 [19] was > 10000 nM. It also gave an MRT last [5] of 1.3 h, an Activity (HCT-116 [20]) of 2.6% and an Activity (HCT-116 [21]) of 21.3%. It also gave an AUCt (Rattus norvegicus [6]) of 495 ng·h/mL, an IC50 [22] of 6.5 nM and an IC50 [23] of 608 nM. It also gave an IC50 [24] of 57 nM, an IC50 [25] of 5.4 nM and an Activity (HCT-116 [26]) of 20.1%. The Activity (HCT-116 [27]) was 27.8%, the Activity (HCT-116 [28]) was 26.7% and the IC50 [29] was 6230 nM. The IC50 [30] was > 10000 nM, the IC50 (Aurora kinase A) was 5300 nM and the half-life [7] was 1.72 h. It also gave an IC50 [1] of 1 nM.
In the case of `CC(Oc1cc(-c2cnc3cc(N4CCN(C)CC4)ccn23)ccc1C(N)=O)c1ccccc1C(F)(F)F` (stereo not drawn), the IC50 (MGC-803) is reported as 12300 nM and the IC50 [1] is reported as 2170 nM.
Molecule `CNC(=O)c1ccc(-c2cnc3cc(N4CCN(C)CC4)ccn23)cc1OC(C)c1ccccc1C(F)(F)F` (stereo not drawn) has an IC50 [1] of 197000 nM.
